Assay type in all cases: binding
Experiment [1] deals with T1, CYP147G1 (Mycobacterium marinum, UniProt B2HE89).
T1 construct: produced in E. coli, purified by two ion exchange steps; ferric heme
T1 sequence (B2HE89 1-422): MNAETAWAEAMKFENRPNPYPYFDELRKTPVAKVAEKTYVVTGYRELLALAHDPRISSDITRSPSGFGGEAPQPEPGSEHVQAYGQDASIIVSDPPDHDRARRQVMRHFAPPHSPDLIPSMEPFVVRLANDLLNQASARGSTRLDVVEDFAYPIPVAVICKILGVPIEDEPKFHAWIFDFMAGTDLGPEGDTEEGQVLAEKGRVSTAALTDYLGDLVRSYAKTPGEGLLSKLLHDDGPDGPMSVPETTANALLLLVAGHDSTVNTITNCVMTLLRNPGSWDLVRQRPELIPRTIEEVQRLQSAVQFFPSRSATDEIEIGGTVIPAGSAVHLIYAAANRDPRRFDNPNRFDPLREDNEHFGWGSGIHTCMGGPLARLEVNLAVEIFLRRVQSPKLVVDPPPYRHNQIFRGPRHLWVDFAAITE
The experiment in a line: UV/Vis heme spin-state shift. As to conditions: purified ferric enzyme; also oxidised to indigo in E. coli with FdR1/Fdx3.

The next experiment has as its target T2, CYP269A1 (Mycobacterium marinum, UniProt B2HPM5).
T2 construct: produced in E. coli and purified; high-spin-like ferric heme (Soret 390 nm); gene near ferredoxin gene Mmar_3973 (Fdx4)
T2 sequence (B2HPM5 1-403): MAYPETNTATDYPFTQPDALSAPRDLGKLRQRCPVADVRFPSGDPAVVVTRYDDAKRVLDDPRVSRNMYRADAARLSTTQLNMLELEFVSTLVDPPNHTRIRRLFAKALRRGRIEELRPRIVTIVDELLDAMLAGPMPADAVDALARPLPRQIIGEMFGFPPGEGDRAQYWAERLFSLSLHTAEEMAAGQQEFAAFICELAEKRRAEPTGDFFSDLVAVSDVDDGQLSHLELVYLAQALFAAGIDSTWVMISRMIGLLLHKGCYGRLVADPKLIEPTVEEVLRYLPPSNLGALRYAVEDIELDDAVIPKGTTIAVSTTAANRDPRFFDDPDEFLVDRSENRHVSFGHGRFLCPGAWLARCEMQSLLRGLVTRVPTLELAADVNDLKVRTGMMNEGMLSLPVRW
The experiment in a line: UV/Vis heme Soret shift titration.

Experiment [2] concerns the target T1, CYP147G1. The experiment in a line: UV/Vis heme spin-state shift titration. The conditions noted are these: read-out: dissociation constant.
Another experiment has as its target T3, CYP150A5 (Mycobacterium marinum, UniProt B2HG29).
T3 construct: produced in E. coli and purified; ferric heme; gene near ferredoxin gene Mmar_4736 (Fdx8)
T3 sequence (B2HG29 1-423): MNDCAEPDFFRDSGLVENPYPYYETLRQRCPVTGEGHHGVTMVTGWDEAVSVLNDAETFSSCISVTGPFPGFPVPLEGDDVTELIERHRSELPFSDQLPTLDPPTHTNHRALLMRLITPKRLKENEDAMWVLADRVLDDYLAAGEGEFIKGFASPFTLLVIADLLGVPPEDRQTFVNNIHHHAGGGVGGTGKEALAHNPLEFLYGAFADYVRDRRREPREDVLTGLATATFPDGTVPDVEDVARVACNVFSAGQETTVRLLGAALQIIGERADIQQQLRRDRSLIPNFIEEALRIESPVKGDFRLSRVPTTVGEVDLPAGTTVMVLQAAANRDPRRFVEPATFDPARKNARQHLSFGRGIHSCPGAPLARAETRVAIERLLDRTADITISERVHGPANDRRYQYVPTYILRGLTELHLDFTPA
The experiment in a line: UV/Vis heme spin-state shift titration.

The next experiment addresses T4, CYP278A1 (Mycobacterium marinum, UniProt B2HE37).
T4 construct: produced in E. coli and purified; ferric heme; gene near ferredoxin gene Mmar_2879 (Fdx2)
T4 sequence (B2HE37 1-427): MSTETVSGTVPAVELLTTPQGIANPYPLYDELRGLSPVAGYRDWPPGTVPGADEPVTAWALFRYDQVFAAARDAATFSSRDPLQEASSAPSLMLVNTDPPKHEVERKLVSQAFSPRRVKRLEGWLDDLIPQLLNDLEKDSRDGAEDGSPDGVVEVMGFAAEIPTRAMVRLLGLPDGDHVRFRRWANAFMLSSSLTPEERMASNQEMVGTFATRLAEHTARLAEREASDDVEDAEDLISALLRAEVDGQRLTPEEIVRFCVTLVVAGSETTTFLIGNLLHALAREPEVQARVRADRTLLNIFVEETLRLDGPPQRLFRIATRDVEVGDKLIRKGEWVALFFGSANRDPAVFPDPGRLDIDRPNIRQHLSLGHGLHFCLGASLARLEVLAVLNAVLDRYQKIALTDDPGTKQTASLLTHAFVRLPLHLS
Kind of experiment: UV/Vis heme spin-state shift titration.

A value given as a limit tells only on which side of the number the result lay.

In the case of `c1ccc2[nH]ccc2c1` [indole], the “% high-spin” value at CYP147G1 [1] is less than 5%.

As for `Clc1ccc(COC(Cn2ccnc2)c2ccc(Cl)cc2Cl)c(Cl)c1` (centres unmarked) [miconazole], the Kd at CYP269A1 worked out at 0.05 ± 0.007 µM.

Take `CCCCCCCCCCC(=O)O` [undecanoic acid]: at CYP147G1 [2], the Kd stood at 25 ± 4 µM.

For the compound `CC(=O)/C=C/C1=C(C)CCCC1(C)C` [β-ionone], the figures for the Kd at CYP150A5 and on CYP278A1 were 41 ± 3 µM and 5.1 ± 1.5 µM, respectively.

These data come from paper PMC6237146, “Electron transfer ferredoxins with unusual cluster binding motifs support secondary metabolism in many bacteria” (Chemical Science, 2018).
